According to US6660742B2, “Compositions and methods of the use thereof achiral analogues of CC-1065 and the duocarmycins” (priority 2000, dated 2003):
Like-named read-outs stand apart in the source and are kept apart here.

Columns and labels:
[1] = tested on: panel of 60 human cancer cell lines; test: NCI in-vitro cytotoxicity screen, whole panel; assay type: cell-based
SR = test: NCI screen, SR (Leukemia)
Protocol: (§1) The compounds of this invention were also tested against the panel of 60 human cancer cell lines at the National Cancer Institute, Bethesda, Md. […] The cytrotoxicity studies were conducted using a 48 hour exposure, and measuring the optical density of sulforhodamide B-derived color.

K-562 = test: NCI screen, K-562 (Leukemia)
Protocol: as §1

SF-295 = test: NCI screen, SF-295 (CNS Cancer)
Protocol: as §1

SNB-19 = test: NCI screen, SNB-19 (CNS Cancer)
Protocol: as §1

SNB-75 = test: NCI screen, SNB-75 (CNS Cancer); settings: SNB-75, 48 hour exposure
Protocol: as §1

SK-MEL-2 = test: NCI screen, SK-MEL-2 (Melanoma)
Protocol: as §1

SK-MEL-28 = test: NCI screen, SK-MEL-28 (Melanoma)
Protocol: as §1

786-0 = test: NCI screen, 786-0 (Renal Cancer)
Protocol: as §1

SN12C = test: NCI screen, SN12C (Renal Cancer)
Protocol: as §1

UO-31 = test: NCI screen, UO-31 (Renal Cancer); settings: UO-31, 48 hour exposure
Protocol: as §1

MCF7 = test: NCI screen, MCF7 (Breast Cancer)
Protocol: as §1

MDA-N = test: NCI screen, MDA-N (Breast Cancer); settings: MDA-N, 48 hour exposure
Protocol: as §1

HCT-116 = test: NCI screen, HCT-116 (Colon Cancer); settings: HCT-116, 48 hour exposure
Protocol: as §1

RXF 393 = test: NCI screen, RXF 393 (Renal Cancer)
Protocol: as §1

HCC-2998 = test: NCI screen, HCC-2998 (Colon Cancer)
Protocol: as §1

PC-3 = test: NCI screen, PC-3 (Prostrate Cancer)
Protocol: as §1

SK-OV-3 = test: NCI screen, SK-OV-3 (Ovarian Cancer)
Protocol: as §1

HOP-62 = test: NCI screen, HOP-62 (Non-Small Cell Lung Cancer)
Protocol: as §1

NCI-H522 = test: NCI screen, NCI-H522 (Non-Small Cell Lung Cancer)
Protocol: as §1

[2] = Log10 Concentration −4.3, 48 hour exposure
[3] = Log10 Concentration −5.3, 48 hour exposure
[4] = Log10 Concentration −6.3, 48 hour exposure
[5] = Log10 Concentration −7.3, 48 hour exposure
[6] = Log10 Concentration −8.3, 48 hour exposure

COC(=O)c1[nH]c2c(O)cc(NC(=O)c3cc4cc(OC)c(OC)c(OC)c4[nH]3)c(CCCl)c2c1C(=O)OC [Compound 22, Dimethyl 4-(2-chloroethyl)-7-hydroxy-5-(5,6,7-trimethoxyindole-2-carboxamido)indole-2,3-dicarboxylate]
range of activity ([1]; 48 hour exposure): micromolar range
activity against leukemia cells ([1]; leukemia cells): none of these compounds showed much activity
activity against melanoma cells ([1]; melanoma cells): active
activity against solid tumors cells ([1]; solid tumors cells): strong activity
TGI (HOP-92; 48 hour exposure): 2.57E−06 Molar
Percent Growth (HOP-92; [2]): −38%
Percent Growth (HOP-92; [3]): −5%
Percent Growth (HOP-92; [4]): 12%
Percent Growth (HOP-92; [5]): 97%
Percent Growth (HOP-92; [6]): 101%
TGI (HCT-15): 4.00E−06 Molar
TGI (KM12): 2.03E−07 Molar
TGI (SR; 48 hour exposure): >5.00E−05 Molar
CC50 (SR; Homo sapiens, 48 h, read-out: LC50): > 50 µM
Percent Growth (SR; [2]): 20%
Percent Growth (SR; [3]): 27%
Percent Growth (SR; [4]): 21%
Percent Growth (SR; [5]): 28%
Percent Growth (SR; [6]): 51%
TGI (K-562; 48 hour exposure): >5.00E−05 Molar
Percent Growth (K-562; [2]): 36%
Percent Growth (K-562; [3]): 34%
Percent Growth (K-562; [4]): 43%
Percent Growth (K-562; [5]): 77%
Percent Growth (K-562; [6]): 94%
Percent Growth (SF-295): 1%
TGI (SF-295; SF-295, 48 hour exposure): >5.00E−05 Molar
Percent Growth (SF-295; SF-295, Log10 Concentration −5.3, 48 hour exposure): 11%
Percent Growth (SF-295; SF-295, Log10 Concentration −6.3, 48 hour exposure): 14%
Percent Growth (SF-295; SF-295, Log10 Concentration −7.3, 48 hour exposure): 74%
Percent Growth (SF-295; SF-295, Log10 Concentration −8.3, 48 hour exposure): 106%
TGI (SNB-19; 48 hour exposure): 1.64E−05 Molar
Percent Growth (SNB-19; [2]): −7%
Percent Growth (SNB-19; [3]): 7%
Percent Growth (SNB-19; [4]): 21%
Percent Growth (SNB-19; [5]): 83%
Percent Growth (SNB-19; [6]): 89%
TGI (SNB-75): 1.90E−07 Molar
Percent Growth (SNB-75; Log10 Concentration −4.3): −51%
Percent Growth (SNB-75; Log10 Concentration −5.3): −84%
Percent Growth (SNB-75; Log10 Concentration −6.3): −44%
Percent Growth (SNB-75; Log10 Concentration −7.3): 60%
Percent Growth (SNB-75; Log10 Concentration −8.3): 77%
TGI (SK-MEL-2; 48 hour exposure): 1.69E−07 Molar
Percent Growth (SK-MEL-2; [2]): −87%
Percent Growth (SK-MEL-2; [3]): −74%
Percent Growth (SK-MEL-2; [4]): −78%
Percent Growth (SK-MEL-2; [5]): 87%
Percent Growth (SK-MEL-2; [6]): 89%
TGI (SK-MEL-28; 48 hour exposure): 1.82E−06 Molar
Percent Growth (SK-MEL-28; [2]): −43%
Percent Growth (SK-MEL-28; [3]): −11%
Percent Growth (SK-MEL-28; [4]): 14%
Percent Growth (SK-MEL-28; [5]): 92%
Percent Growth (SK-MEL-28; [6]): 91%
TGI (786-0; 48 hour exposure): 4.92E−07 Molar
Percent Growth (786-0; [2]): −50%
Percent Growth (786-0; [3]): −26%
Percent Growth (786-0; [4]): −1%
Percent Growth (786-0; [5]): 82%
Percent Growth (786-0; [6]): 94%
TGI (SN12C; 48 hour exposure): 7.17E−06 Molar
Percent Growth (SN12C; [2]): −50%
Percent Growth (SN12C; [3]): 9%
Percent Growth (SN12C; [4]): 22%
Percent Growth (SN12C; [5]): 84%
Percent Growth (SN12C; [6]): 90%
Percent Growth (UO-31; Log10 Concentration −4.3): 8%
Percent Growth (UO-31; Log10 Concentration −5.3): 5%
Percent Growth (UO-31; Log10 Concentration −6.3): −47%
Percent Growth (UO-31; Log10 Concentration −7.3): 91%
Percent Growth (UO-31; Log10 Concentration −8.3): 96%
TGI (MCF7; 48 hour exposure): 6.31E−06 Molar
Percent Growth (MCF7; [2]): −51%
Percent Growth (MCF7; [3]): 6%
Percent Growth (MCF7; [4]): 6%
Percent Growth (MCF7; [5]): 39%
Percent Growth (MCF7; [6]): 70%
Percent Growth (MDA-N; Log10 Concentration −4.3): 8%
Percent Growth (MDA-N; Log10 Concentration −5.3): −3%
Percent Growth (MDA-N; Log10 Concentration −6.3): 5%
Percent Growth (MDA-N; Log10 Concentration −7.3): 91%
Percent Growth (MDA-N; Log10 Concentration −8.3): 90%
TGI (HCT-116): 1.95E−07 Molar
Percent Growth (HCT-116; Log10 Concentration −4.3): −59%
Percent Growth (HCT-116; Log10 Concentration −5.3): −9%
Percent Growth (HCT-116; Log10 Concentration −6.3): −43%
Percent Growth (HCT-116; Log10 Concentration −7.3): 62%
Percent Growth (HCT-116; Log10 Concentration −8.3): 88%
TGI (RXF 393; 48 hour exposure): 1.31E−06 Molar
Percent Growth (RXF 393; [2]): −65%
Percent Growth (RXF 393; [3]): −25%
Percent Growth (RXF 393; [4]): 18%
Percent Growth (RXF 393; [5]): 57%
Percent Growth (RXF 393; [6]): 94%
TGI (HCC-2998; 48 hour exposure): 2.89E−07 Molar
Percent Growth (HCC-2998; [2]): −88%
Percent Growth (HCC-2998; [3]): −31%
Percent Growth (HCC-2998; [4]): −27%
Percent Growth (HCC-2998; [5]): 85%
Percent Growth (HCC-2998; [6]): 91%
TGI (PC-3; 48 hour exposure): 6.40E−07 Molar
Percent Growth (PC-3; [2]): −88%
Percent Growth (PC-3; [3]): −32%
Percent Growth (PC-3; [4]): 4%
Percent Growth (PC-3; [5]): 55%
Percent Growth (PC-3; [6]): 81%
TGI (SK-OV-3; 48 hour exposure): 8.81E−06 Molar
Percent Growth (SK-OV-3; [2]): −54%
Percent Growth (SK-OV-3; [3]): 17%
Percent Growth (SK-OV-3; [4]): 35%
Percent Growth (SK-OV-3; [5]): 90%
Percent Growth (SK-OV-3; [6]): 103%
TGI (HOP-62; 48 hour exposure): 2.51E−07 Molar
Percent Growth (HOP-62; [2]): −88%
Percent Growth (HOP-62; [3]): −39%
Percent Growth (HOP-62; [4]): −34%
Percent Growth (HOP-62; [5]): 80%
Percent Growth (HOP-62; [6]): 92%
TGI (NCI-H522; 48 hour exposure): 1.47E−07 Molar
Percent Growth (NCI-H522; [2]): −96%
Percent Growth (NCI-H522; [3]): −86%
Percent Growth (NCI-H522; [4]): −66%
Percent Growth (NCI-H522; [5]): 58%
Percent Growth (NCI-H522; [6]): 74%
